Data as given in ChEMBL document CHEMBL5032522, “N-2-(phenylamino) benzamide derivatives as novel anti-glioblastoma agents: Synthesis and biological evaluation” (Eur J Med Chem, 2021).
Activity calls are given as the source filed them. The calls are words filed in the database; no cut-off is given here.

Legend:
U-87 MG [1] = assay: Antiproliferative activity against human U-87 MG cells assessed as inhibition of cell growth measured after 72 hrs by CCK-8 assay; format: functional, cell-based, U-87MG ATCC
U-251 [2] = assay: Antiproliferative activity against human U-251 cells assessed as inhibition of cell growth measured after 72 hrs by CCK-8 assay; format: functional, cell-based; settings: U-251, 72 h
C6 = assay: Antiproliferative activity against rat C6 cells assessed as inhibition of cell growth measured after 72 hrs by CCK-8 assay; format: functional, cell-based; settings: C6, 72 h
[3] = biological target: T1, Prostaglandin G/H synthase 2 (Homo sapiens, UniProt P35354); assay: Inhibition of human recombinant COX-2 using arachidonic acid as substrate preincubated 10 mins followed by substrate addition and measured after 2 mins by ELISA
T1 sequence (P35354 whole entry): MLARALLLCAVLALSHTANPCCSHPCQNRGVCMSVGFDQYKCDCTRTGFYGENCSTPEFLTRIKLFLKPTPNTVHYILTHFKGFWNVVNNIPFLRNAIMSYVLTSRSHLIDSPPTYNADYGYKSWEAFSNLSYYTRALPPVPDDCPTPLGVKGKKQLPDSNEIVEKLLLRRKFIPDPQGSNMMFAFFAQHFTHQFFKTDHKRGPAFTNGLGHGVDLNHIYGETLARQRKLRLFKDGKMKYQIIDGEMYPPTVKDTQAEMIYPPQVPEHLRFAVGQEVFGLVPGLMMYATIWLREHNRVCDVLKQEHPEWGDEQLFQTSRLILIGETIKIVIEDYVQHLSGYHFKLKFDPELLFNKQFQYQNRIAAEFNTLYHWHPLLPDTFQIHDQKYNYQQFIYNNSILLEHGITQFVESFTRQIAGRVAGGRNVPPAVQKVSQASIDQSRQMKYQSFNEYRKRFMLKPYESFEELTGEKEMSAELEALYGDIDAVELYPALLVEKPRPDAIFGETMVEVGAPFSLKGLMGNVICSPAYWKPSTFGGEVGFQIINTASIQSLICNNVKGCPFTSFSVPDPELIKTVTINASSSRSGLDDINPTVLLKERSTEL

DNA topoisomerase 1 = biological target: T2, DNA topoisomerase 1 (Homo sapiens, UniProt P11387); assay: Inhibition of human topoisomerase I using DNA pBR322 as substrate assessed as DNA relaxation incubated for 45 mins by ethidium bromide staining based agarose gel electrophoresis
T2 sequence (P11387 whole entry): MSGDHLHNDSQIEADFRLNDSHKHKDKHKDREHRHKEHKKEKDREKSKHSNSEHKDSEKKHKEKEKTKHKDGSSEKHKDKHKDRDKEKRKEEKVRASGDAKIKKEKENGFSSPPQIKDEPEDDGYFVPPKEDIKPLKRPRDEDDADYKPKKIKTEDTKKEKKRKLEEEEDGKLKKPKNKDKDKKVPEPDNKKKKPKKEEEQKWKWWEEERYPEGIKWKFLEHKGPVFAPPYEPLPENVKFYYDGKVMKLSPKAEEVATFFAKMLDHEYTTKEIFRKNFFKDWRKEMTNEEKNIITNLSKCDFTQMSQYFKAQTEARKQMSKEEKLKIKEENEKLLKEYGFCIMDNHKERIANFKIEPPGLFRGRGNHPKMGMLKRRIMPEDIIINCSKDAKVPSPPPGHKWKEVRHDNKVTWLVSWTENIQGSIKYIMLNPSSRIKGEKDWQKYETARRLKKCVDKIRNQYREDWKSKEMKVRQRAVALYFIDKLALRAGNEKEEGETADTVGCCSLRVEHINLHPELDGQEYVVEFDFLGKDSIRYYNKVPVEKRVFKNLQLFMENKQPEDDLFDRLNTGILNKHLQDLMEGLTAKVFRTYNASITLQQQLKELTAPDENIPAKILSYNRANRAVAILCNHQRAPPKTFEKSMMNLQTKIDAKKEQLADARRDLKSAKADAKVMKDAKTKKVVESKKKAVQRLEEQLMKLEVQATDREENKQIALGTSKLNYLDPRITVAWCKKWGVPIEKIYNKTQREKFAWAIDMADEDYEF

[4] = biological target: T3, DNA topoisomerase 1 (Homo sapiens) (UniProt P11387); assay: Inhibition of human topoisomerase I using DNA pBR322 as substrate assessed as DNA intercalation at 100 uM incubated for 30 mins by ethidium bromide staining based agarose gel electrophoresis method
T3 sequence (whole entry): T2 sequence (P11387 whole entry)

U-251 [5] = assay: Inhibition of cell invasion in human U-251 cells incubated for 24 hrs by crystal violet staining based light microscopic analysis; format: functional
U-87 MG [6] = assay: Inhibition of cell invasion in human U-87 MG cells incubated for 24 hrs by crystal violet staining based light microscopic analysis; format: functional; settings: U-87MG ATCC
U-87 MG [7] = assay: Inhibition of cell migration in human U-87 MG cells incubated for 24 hrs by crystal violet staining based light microscopic analysis; format: functional; settings: U-87MG ATCC
U-251 [8] = assay: Inhibition of cell migration in human U-251 cells incubated for 24 hrs by crystal violet staining based light microscopic analysis; format: functional
[9] = biological target: T4, Prostaglandin G/H synthase 2 (Rattus norvegicus) (UniProt P35355); assay: In vivo inhibition of COX2 in ip dosed orthotopic Sprague-Dawley rat model inoculated with C6 cells assessed as reduction in PGE2 production by ELISA; format: functional, organism-based
T4 sequence (whole entry): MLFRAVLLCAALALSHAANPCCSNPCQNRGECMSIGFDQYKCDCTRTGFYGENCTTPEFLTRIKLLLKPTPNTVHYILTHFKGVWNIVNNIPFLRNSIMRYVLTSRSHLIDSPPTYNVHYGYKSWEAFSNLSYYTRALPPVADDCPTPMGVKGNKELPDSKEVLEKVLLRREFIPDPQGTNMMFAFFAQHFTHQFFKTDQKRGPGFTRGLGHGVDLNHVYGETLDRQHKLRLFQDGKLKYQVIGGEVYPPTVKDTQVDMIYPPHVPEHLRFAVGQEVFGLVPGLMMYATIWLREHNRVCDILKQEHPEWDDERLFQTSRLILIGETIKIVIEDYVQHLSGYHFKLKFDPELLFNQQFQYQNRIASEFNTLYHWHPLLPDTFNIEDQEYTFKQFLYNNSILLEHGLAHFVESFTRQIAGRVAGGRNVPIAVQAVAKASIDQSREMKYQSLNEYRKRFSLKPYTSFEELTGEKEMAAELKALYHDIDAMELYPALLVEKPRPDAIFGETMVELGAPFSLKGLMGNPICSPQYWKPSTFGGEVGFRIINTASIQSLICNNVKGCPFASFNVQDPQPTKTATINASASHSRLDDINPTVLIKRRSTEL

[10] = Toxicity in Sprague-Dawley rat inoculated with C6 cells assessed as reduction in body weight at 50 mg/kg, ip bid administered for 14 days; format: organism-based; settings: in vivo, 336 h, time 14 day

SMILES	IC50 (U-87 MG [1]) [µM]	IC50 (U-251 [2]) [µM]	IC50 [3] [µM]	IC50 (DNA topoisomerase 1) [µM]	inhibition [4]	inhibition [9]	IC50 (C6) [µM]	inhibition (U-251 [5])	inhibition (U-87 MG [6])	inhibition (U-87 MG [7])	inhibition (U-251 [8])	Activity [10]
COc1ccc(NC(=O)c2ccccc2Nc2ccccc2)cc1	> 200	184	> 150	> 125	–	–	> 200	–	–	–	–	–
COc1ccc(NC(=O)c2cccnc2Nc2cccc(Cl)c2C)cc1	187	> 200	> 150	61.2	–	–	> 200	–	–	–	–	–
COc1ccc(NC(=O)c2ccccc2Nc2cccc(Cl)c2C)c(OC)c1	> 200	> 200	115	70.9	–	–	> 200	–	–	–	–	–
COc1cc(NS(C)(=O)=O)ccc1Nc1c2ccccc2nc2ccccc12	–	–	–	–	Active	–	–	–	–	–	–	–
COc1ccc(CCCNC(=O)c2ccccc2Nc2ccccc2)cc1	> 200	> 200	> 150	> 125	–	–	> 200	–	–	–	–	–
CSc1ccc(NC(=O)c2ccccc2Nc2cccc(C(F)(F)F)c2)cc1	> 200	92.4	> 150	> 125	–	–	> 200	–	–	–	–	–
COc1ccc(NC(=O)c2ccccc2Nc2cccc(Cl)c2)cc1	> 200	165	> 150	85.7	–	–	> 200	–	–	–	–	–
COc1ccc(CCNC(=O)c2ccccc2Nc2ccccc2)cc1	> 200	> 200	> 150	107	–	–	130	–	–	–	–	–
COc1ccc(NC(=O)c2ccccc2NCc2ccccc2)cc1	> 200	> 200	> 150	> 125	–	–	> 200	–	–	–	–	–
Cc1c(Cl)cccc1Nc1ccccc1C(=O)O [TOLFENAMIC ACID]	> 100	> 100	–	–	–	–	> 100	–	–	–	–	–
COc1ccc(CNC(=O)c2ccccc2Nc2ccccc2)cc1	> 200	> 200	17.4	> 125	–	–	> 200	–	–	–	–	–
COc1ccc(NC(=O)c2cccnc2Nc2cccc(C(F)(F)F)c2)cc1	> 200	> 200	> 150	108	–	–	> 200	–	–	–	–	–
COc1ccc(NC(=O)c2ccccc2Nc2cccc(C(F)(F)F)c2)cc1	142	> 200	> 150	> 125	–	–	99.1	–	–	–	–	–
c1ccc(-c2cc(-c3ccccc3)c3ncccc3n2)cc1	> 200	> 200	> 150	> 125	inactive	–	103	Dose-Dependent Effect	Dose-Dependent Effect	Dose-Dependent Effect	Dose-Dependent Effect	–
Cn1nnc2c(C(N)=O)ncn2c1=O [TEMOZOLOMIDE]	–	–	–	–	–	inactive	–	–	–	–	–	Toxic
COc1ccc(NC(=O)c2ccccc2Nc2cccc(C)c2C)cc1OC	144	> 200	48.1	85.6	–	–	169	–	–	–	–	–

The next lines start with results.

IC50 (U-87 MG [1]) [µM]	IC50 (U-251 [2]) [µM]	IC50 [3] [µM]	IC50 (DNA topoisomerase 1) [µM]	inhibition [4]	inhibition [9]	SMILES	IC50 (C6) [µM]	inhibition (U-251 [5])	inhibition (U-87 MG [6])	inhibition (U-87 MG [7])	inhibition (U-251 [8])	Activity [10]
26	12.9	105	105	–	–	O=C(Nc1ccc2c(c1)OCO2)c1ccccc1Nc1cccc(C(F)(F)F)c1	15.6	–	–	–	–	–
54.5	178	117	50.9	–	–	COc1cc(NC(=O)c2ccccc2Nc2cccc(Cl)c2C)cc(OC)c1OC	> 200	–	–	–	–	–
52.1	50.7	> 150	> 125	–	–	COc1cc(NC(=O)c2ccccc2Nc2cccc(C(F)(F)F)c2)cc(OC)c1OC	75.2	–	–	–	–	–
99.8	> 200	92.6	> 125	–	–	COc1ccc(NC(=O)c2ccccc2Nc2cccc(Cl)c2C)cc1OC	44	–	–	–	–	–
72.4	86.2	> 150	> 125	–	–	COc1ccc(NC(=O)c2ccccc2Nc2cccc(C(F)(F)F)c2)cc1OC	36.5	–	–	–	–	–
0.06	0.37	–	–	–	–	CC[C@@]1(O)C(=O)OCc2c1cc1n(c2=O)Cc2cc3c(CN(C)C)c(O)ccc3nc2-1 [TOPOTECAN]	5.8	–	–	–	–	–
73.5	138	> 150	> 125	–	–	COc1ccc(NC(=O)c2ccccc2Nc2cccc(C)c2C)cc1	> 200	–	–	–	–	–
